Test results: patent US20260274829A1, “NEW E3 UBIQUITIN LIGASE LIGAND, PROTEIN DEGRADATION AGENT AND USE THEREOF” (GLUETACS THERAPEUTICS (SHANGHAI) CO., LTD., priority 2023, published 2026)

Legend:
Assay type in all cases: cell-based
CK1a = molecular target: T1, CK1a (Homo sapiens, UniProt P48729+Q96SW2); assay: Western blot degradation of CK1a in hPBMC
T1 construct: endogenous in cells; host or cells: hPBMC
Summary of the method: (§1)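 Compound-treated hPBMC lysates were denatured in SDS loading buffer at 95° C for 5 minutes, run on SDS-PAGE and blotted to nitrocellulose. DC50 is the concentration giving band grayscale half that of DMSO controls, from a fitted concentration-response curve; remaining protein is band intensity normalized to an internal control protein.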

WEE1 = molecular target: T2, WEE1 (Homo sapiens, UniProt P30291+Q96SW2); assay: Western blot degradation of WEE1 in hPBMC
T2 construct: endogenous in cells; host or cells: hPBMC
Summary of the method: as §1

IKZF3 = molecular target: T3, IKZF3 (Homo sapiens, UniProt Q96SW2+Q9UKT9); assay: Western blot degradation of IKZF3 in hPBMC
T3 construct: endogenous in cells; host or cells: hPBMC
Summary of the method: as §1

IKZF1 = molecular target: T4, IKZF1 (Homo sapiens, UniProt Q13422+Q96SW2); assay: Western blot degradation of IKZF1 in hPBMC
T4 construct: endogenous in cells; host or cells: hPBMC
Summary of the method: as §1

IKZF2 = molecular target: T5, IKZF2 (Homo sapiens, UniProt Q96SW2+Q9UKS7); assay: Western blot degradation of IKZF2 in hPBMC
T5 construct: endogenous in cells; host or cells: hPBMC
Summary of the method: as §1

GSPT1 = molecular target: T6, GSPT1 (Homo sapiens, UniProt P15170+Q96SW2); assay: Western blot degradation of GSPT1 in hPBMC
T6 construct: endogenous in cells; host or cells: hPBMC
Summary of the method: as §1

T6 sequence (P15170 whole entry): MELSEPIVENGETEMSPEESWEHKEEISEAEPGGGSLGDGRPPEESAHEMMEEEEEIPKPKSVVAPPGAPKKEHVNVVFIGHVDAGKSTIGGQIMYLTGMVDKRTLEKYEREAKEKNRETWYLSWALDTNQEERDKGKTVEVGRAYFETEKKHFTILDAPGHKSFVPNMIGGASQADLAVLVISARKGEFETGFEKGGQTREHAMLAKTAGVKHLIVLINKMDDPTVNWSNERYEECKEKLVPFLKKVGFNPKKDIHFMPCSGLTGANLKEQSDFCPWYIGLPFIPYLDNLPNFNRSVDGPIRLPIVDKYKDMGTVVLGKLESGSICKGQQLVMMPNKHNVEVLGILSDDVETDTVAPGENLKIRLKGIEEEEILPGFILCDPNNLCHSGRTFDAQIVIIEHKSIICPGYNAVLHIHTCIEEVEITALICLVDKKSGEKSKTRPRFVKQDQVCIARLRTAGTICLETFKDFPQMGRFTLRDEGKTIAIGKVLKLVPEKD
T6 sequence (Q96SW2 whole entry): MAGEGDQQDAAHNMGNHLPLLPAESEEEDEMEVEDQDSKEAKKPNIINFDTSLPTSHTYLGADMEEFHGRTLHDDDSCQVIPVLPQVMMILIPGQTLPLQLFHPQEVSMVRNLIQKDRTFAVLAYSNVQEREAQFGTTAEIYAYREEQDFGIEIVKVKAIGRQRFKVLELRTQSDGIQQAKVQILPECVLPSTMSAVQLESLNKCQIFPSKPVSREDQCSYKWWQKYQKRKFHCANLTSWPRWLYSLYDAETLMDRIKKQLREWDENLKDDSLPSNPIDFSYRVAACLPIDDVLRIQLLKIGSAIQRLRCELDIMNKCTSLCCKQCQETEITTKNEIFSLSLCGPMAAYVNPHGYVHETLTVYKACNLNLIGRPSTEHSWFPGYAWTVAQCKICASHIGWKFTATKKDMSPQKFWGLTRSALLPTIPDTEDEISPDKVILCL
T6 sequence (Q16531 whole entry partner): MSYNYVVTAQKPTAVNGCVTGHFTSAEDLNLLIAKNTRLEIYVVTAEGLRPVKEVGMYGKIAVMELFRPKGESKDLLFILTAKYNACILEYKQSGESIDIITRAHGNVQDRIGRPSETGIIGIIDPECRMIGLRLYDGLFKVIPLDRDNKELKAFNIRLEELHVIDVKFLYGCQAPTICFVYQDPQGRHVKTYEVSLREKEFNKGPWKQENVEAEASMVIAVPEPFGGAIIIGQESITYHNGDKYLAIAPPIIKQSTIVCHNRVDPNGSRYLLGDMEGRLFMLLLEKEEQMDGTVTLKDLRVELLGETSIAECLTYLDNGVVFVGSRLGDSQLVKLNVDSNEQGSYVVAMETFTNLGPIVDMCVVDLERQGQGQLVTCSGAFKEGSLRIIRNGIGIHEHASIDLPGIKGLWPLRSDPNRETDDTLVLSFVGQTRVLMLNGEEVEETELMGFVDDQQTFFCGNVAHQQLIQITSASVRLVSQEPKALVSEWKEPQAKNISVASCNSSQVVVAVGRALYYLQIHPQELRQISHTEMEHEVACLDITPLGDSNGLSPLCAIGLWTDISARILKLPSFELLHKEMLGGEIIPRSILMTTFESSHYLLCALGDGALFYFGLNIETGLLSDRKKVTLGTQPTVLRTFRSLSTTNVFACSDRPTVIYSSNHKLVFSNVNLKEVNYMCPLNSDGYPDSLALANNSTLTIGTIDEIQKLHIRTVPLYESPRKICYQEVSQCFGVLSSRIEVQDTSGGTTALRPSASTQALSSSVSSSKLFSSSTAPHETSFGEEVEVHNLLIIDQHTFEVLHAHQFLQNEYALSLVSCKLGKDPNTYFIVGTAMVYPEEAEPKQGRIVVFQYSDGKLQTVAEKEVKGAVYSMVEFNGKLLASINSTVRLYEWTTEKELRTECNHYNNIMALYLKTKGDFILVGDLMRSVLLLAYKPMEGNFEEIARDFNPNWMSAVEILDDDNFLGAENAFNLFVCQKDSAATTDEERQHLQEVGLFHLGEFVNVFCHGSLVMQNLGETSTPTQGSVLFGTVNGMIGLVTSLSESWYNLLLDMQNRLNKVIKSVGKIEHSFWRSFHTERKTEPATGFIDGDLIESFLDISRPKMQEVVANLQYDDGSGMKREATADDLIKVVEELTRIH
T4 sequence (Q13422 whole entry): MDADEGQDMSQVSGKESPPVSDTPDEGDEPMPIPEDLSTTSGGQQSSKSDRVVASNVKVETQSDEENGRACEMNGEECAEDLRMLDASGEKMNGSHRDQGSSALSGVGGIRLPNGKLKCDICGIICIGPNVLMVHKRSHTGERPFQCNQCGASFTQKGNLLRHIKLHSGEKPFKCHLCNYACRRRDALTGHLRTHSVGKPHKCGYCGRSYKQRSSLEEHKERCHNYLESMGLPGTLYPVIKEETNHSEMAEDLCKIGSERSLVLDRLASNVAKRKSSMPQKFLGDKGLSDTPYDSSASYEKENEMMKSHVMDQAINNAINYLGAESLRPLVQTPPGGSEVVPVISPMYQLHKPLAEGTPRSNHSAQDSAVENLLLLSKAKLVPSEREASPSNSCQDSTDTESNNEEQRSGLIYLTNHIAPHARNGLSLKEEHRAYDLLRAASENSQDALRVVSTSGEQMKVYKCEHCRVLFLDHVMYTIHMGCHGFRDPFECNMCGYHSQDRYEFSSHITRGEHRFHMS
T4 sequence (Q96SW2 whole entry): as the sequence (Q96SW2 whole entry) above
T4 sequence (Q16531 whole entry partner): as the sequence (Q16531 whole entry partner) above
T1 sequence (P48729 whole entry): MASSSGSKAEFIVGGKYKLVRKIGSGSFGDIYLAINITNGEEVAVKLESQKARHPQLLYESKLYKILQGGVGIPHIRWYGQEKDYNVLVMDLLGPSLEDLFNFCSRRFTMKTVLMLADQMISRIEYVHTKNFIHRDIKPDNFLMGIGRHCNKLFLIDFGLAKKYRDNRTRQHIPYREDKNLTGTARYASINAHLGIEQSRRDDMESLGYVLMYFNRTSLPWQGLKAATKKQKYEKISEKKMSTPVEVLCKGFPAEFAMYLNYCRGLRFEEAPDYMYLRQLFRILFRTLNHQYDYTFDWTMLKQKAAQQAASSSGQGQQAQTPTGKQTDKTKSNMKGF
T1 sequence (Q96SW2 whole entry): as the sequence (Q96SW2 whole entry) above
T1 sequence (Q16531 whole entry partner): as the sequence (Q16531 whole entry partner) above
T3 sequence (Q9UKT9 whole entry): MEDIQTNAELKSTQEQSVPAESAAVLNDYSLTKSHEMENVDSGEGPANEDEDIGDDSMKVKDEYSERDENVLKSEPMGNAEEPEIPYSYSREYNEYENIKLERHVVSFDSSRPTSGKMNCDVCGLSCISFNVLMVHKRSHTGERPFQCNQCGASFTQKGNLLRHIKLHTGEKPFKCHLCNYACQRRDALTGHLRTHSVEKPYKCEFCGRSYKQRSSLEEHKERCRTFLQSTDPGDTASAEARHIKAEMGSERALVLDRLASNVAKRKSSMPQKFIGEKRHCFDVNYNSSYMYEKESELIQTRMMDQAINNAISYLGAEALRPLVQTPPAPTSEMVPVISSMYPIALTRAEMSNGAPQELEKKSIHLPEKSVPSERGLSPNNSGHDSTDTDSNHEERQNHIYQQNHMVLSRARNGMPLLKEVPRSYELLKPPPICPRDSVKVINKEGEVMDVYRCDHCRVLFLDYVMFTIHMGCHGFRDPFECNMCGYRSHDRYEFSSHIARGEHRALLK
T3 sequence (Q96SW2 whole entry): as the sequence (Q96SW2 whole entry) above
T3 sequence (Q16531 whole entry partner): as the sequence (Q16531 whole entry partner) above
T2 sequence (P30291 whole entry): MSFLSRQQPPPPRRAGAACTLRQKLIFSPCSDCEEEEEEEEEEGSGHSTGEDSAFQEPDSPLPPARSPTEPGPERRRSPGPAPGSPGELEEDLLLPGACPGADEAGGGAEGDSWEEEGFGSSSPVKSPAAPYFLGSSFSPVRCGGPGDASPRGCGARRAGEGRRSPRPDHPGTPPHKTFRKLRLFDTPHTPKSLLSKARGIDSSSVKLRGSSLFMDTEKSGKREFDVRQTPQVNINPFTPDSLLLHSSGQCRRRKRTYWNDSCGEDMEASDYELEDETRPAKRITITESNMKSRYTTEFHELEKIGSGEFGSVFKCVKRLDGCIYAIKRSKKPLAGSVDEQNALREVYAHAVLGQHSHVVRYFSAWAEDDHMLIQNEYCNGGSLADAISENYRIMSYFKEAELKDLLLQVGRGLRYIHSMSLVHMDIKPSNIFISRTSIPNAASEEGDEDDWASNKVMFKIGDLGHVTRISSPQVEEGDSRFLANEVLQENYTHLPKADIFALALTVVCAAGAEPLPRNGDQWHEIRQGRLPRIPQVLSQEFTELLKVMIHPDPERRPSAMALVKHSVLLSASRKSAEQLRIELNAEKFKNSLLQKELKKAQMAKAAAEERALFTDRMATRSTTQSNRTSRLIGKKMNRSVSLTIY
T2 sequence (Q96SW2 whole entry): as the sequence (Q96SW2 whole entry) above
T2 sequence (Q16531 whole entry partner): as the sequence (Q16531 whole entry partner) above

SMILES | Degradation of substrate protein CK1a (substrate protein remaining %) (CK1a) | Degradation of substrate protein WEE1 (substrate protein remaining %) (WEE1) | Degradation of substrate protein IKZF3 (substrate protein remaining %) (IKZF3) | Degradation of substrate protein IKZF1 (substrate protein remaining %) (IKZF1) | Degradation of substrate protein IKZF2 (substrate protein remaining %) (IKZF2) | Degradation of substrate protein GSPT1 (substrate protein remaining %) (GSPT1)
CC(C)(C)[Si](C)(C)OCc1ccc(NC2CCC(=O)NC2=O)nc1 (stereo not drawn) [GT-07552, 3-((5-(((tert-butyldimethylsilyl)oxy)methyl)pyridin-2-yl)amino)piperidine-2,6-dione] | B (B is defined as substrate protein remaining % > 80%) | B (B is defined as substrate protein remaining % > 80%) | B (B is defined as substrate protein remaining % > 80%) | B (B is defined as substrate protein remaining % > 80%) | A (A is defined as 0% ≤ substrate protein remaining % ≤ 80%) | B (B is defined as substrate protein remaining % > 80%)
O=Cc1ccnc(NC2CCC(=O)NC2=O)c1 (stereo not drawn) [GT-07553, 2-((2,6-dioxopiperidin-3-yl)amino)isonicotinaldehyde] | B (B is defined as substrate protein remaining % > 80%) | A (A is defined as 0% ≤ substrate protein remaining % ≤ 80%) | B (B is defined as substrate protein remaining % > 80%) | A (A is defined as 0% ≤ substrate protein remaining % ≤ 80%) | A (A is defined as 0% ≤ substrate protein remaining % ≤ 80%) | B (B is defined as substrate protein remaining % > 80%)
O=Cc1cncc(NC2CCC(=O)NC2=O)c1 (stereo not drawn) [GT-07554, 5-((2,6-dioxopiperidin-3-yl)amino)nicotinaldehyde] | A (A is defined as 0% ≤ substrate protein remaining % ≤ 80%) | A (A is defined as 0% ≤ substrate protein remaining % ≤ 80%) | A (A is defined as 0% ≤ substrate protein remaining % ≤ 80%) | A (A is defined as 0% ≤ substrate protein remaining % ≤ 80%) | A (A is defined as 0% ≤ substrate protein remaining % ≤ 80%) | B (B is defined as substrate protein remaining % > 80%)
O=C1CCN(c2cnc(CO)c(F)c2)C(=O)N1 [GT-07555, 1-(5-fluoro-6-(hydroxymethyl)pyridin-3-yl)dihydropyrimidine-2,4(1H,3H)-dione] | A (A is defined as 0% ≤ substrate protein remaining % ≤ 80%) | A (A is defined as 0% ≤ substrate protein remaining % ≤ 80%) | A (A is defined as 0% ≤ substrate protein remaining % ≤ 80%) | A (A is defined as 0% ≤ substrate protein remaining % ≤ 80%) | A (A is defined as 0% ≤ substrate protein remaining % ≤ 80%) | A (A is defined as 0% ≤ substrate protein remaining % ≤ 80%)
O=C1CCN(c2cnc(F)c(CO)c2)C(=O)N1 [GT-07556, 1-(6-fluoro-5-(hydroxymethyl)pyridin-3-yl)dihydropyrimidine-2,4(1H,3H)-dione] | A (A is defined as 0% ≤ substrate protein remaining % ≤ 80%) | A (A is defined as 0% ≤ substrate protein remaining % ≤ 80%) | A (A is defined as 0% ≤ substrate protein remaining % ≤ 80%) | A (A is defined as 0% ≤ substrate protein remaining % ≤ 80%) | B (B is defined as substrate protein remaining % > 80%) | B (B is defined as substrate protein remaining % > 80%)
O=C1CCN(c2cnc(CCl)c(F)c2)C(=O)N1 [GT-07557, 1-(6-(chloromethyl)-5-fluoropyridin-3-yl)dihydropyrimidine-2,4(1H,3H)-dione] | A (A is defined as 0% ≤ substrate protein remaining % ≤ 80%) | A (A is defined as 0% ≤ substrate protein remaining % ≤ 80%) | B (B is defined as substrate protein remaining % > 80%) | A (A is defined as 0% ≤ substrate protein remaining % ≤ 80%) | B (B is defined as substrate protein remaining % > 80%) | B (B is defined as substrate protein remaining % > 80%)
O=C1CCC(c2ccc(CO)nc2F)C(=O)N1 (stereo not drawn) [GT-07558, 3-(2-fluoro-6-(hydroxymethyl)pyridin-3-yl)piperidine-2,6-dione] | A (A is defined as 0% ≤ substrate protein remaining % ≤ 80%) | A (A is defined as 0% ≤ substrate protein remaining % ≤ 80%) | B (B is defined as substrate protein remaining % > 80%) | A (A is defined as 0% ≤ substrate protein remaining % ≤ 80%) | B (B is defined as substrate protein remaining % > 80%) | B (B is defined as substrate protein remaining % > 80%)
O=C1CCC(Nc2cnccc2CO)C(=O)N1 (stereo not drawn) [GT-07559, 3-((4-(hydroxymethyl)pyridin-3-yl)amino)piperidine-2,6-dione] | A (A is defined as 0% ≤ substrate protein remaining % ≤ 80%) | A (A is defined as 0% ≤ substrate protein remaining % ≤ 80%) | A (A is defined as 0% ≤ substrate protein remaining % ≤ 80%) | A (A is defined as 0% ≤ substrate protein remaining % ≤ 80%) | A (A is defined as 0% ≤ substrate protein remaining % ≤ 80%) | A (A is defined as 0% ≤ substrate protein remaining % ≤ 80%)
O=C1CCN(c2cncc(CO)n2)C(=O)N1 [GT-07632, 1-(6-(hydroxymethyl)pyrazin-2-yl)dihydropyrimidine-2,4(1H,3H)-dione] | A (A is defined as 0% ≤ substrate protein remaining % ≤ 80%) | A (A is defined as 0% ≤ substrate protein remaining % ≤ 80%) | A (A is defined as 0% ≤ substrate protein remaining % ≤ 80%) | A (A is defined as 0% ≤ substrate protein remaining % ≤ 80%) | A (A is defined as 0% ≤ substrate protein remaining % ≤ 80%) | B (B is defined as substrate protein remaining % > 80%)
O=C1CCN(c2cnc(F)c(CCl)c2)C(=O)N1 [GT-07633, 1-(5-(chloromethyl)-6-fluoropyridin-3-yl)dihydropyrimidine-2,4(1H,3H)-dione] | A (A is defined as 0% ≤ substrate protein remaining % ≤ 80%) | A (A is defined as 0% ≤ substrate protein remaining % ≤ 80%) | B (B is defined as substrate protein remaining % > 80%) | B (B is defined as substrate protein remaining % > 80%) | A (A is defined as 0% ≤ substrate protein remaining % ≤ 80%) | B (B is defined as substrate protein remaining % > 80%)
O=C1CCN(c2cnc(CO)cn2)C(=O)N1 [GT-07634, 1-(5-(hydroxymethyl)pyrazin-2-yl)dihydropyrimidine-2,4(1H,3H)-dione] | A (A is defined as 0% ≤ substrate protein remaining % ≤ 80%) | A (A is defined as 0% ≤ substrate protein remaining % ≤ 80%) | A (A is defined as 0% ≤ substrate protein remaining % ≤ 80%) | A (A is defined as 0% ≤ substrate protein remaining % ≤ 80%) | A (A is defined as 0% ≤ substrate protein remaining % ≤ 80%) | B (B is defined as substrate protein remaining % > 80%)
O=C1CCN(c2cnc(CCl)cn2)C(=O)N1 [GT-07635, 1-(5-(chloromethyl)pyrazin-2-yl)dihydropyrimidine-2,4(1H,3H)-dione] | A (A is defined as 0% ≤ substrate protein remaining % ≤ 80%) | A (A is defined as 0% ≤ substrate protein remaining % ≤ 80%) | A (A is defined as 0% ≤ substrate protein remaining % ≤ 80%) | A (A is defined as 0% ≤ substrate protein remaining % ≤ 80%) | A (A is defined as 0% ≤ substrate protein remaining % ≤ 80%) | B (B is defined as substrate protein remaining % > 80%)
